Here are results for 17 compounds from patent US20240246905A1 (University of Leicester, priority 2021, published 2024).

For test [1], the system named is MRSA 252. Kind of test: Disc diffusion (Kirby-Bauer), zone of inhibition. The format is cell-based, Staphylococcus aureus. The note with it: Staphylococcus aureus, 500 μg/mL, '/' = no zone, read-out: Zone of inhibition. The protocol: (§1) E. coli DH5α, P. aeruginosa PA01 and the 53 S. aureus strains were recovered from frozen (−80° C.) glycerol (15% v/v) stocks on Lysogeny agar (LA)—Gram negative and trypticase soy agar (TSA)—plates at 37° C. for 24 hours. Single colonies were placed in either 3 mL Lysogeny broth (LB)—Gram negative or trypticase soy broth (TSB)—Gram positive and incubated at 37° C., 250 rpm for 18 hours.
(§2) The antibiotic activity was determined using a Kirby-Bauer method according to Clinical Standard Laboratory Institute (CSLI) Guidelines (2017). Briefly, 180 μL of a 1 in 200 dilution (in LB or TSB) of overnight cultures of selected Gram negative and Gram positive bacteria were applied to an agar plate containing the solid growth medium, Mueller-Hinton agar (MHA). Sterile discs, inoculated with 50 μL of antibiotic, were first added to the agar plate before the plates were incubated for 24 hours at 37° C. Following incubation, the zone of inhibition (if it existed) was recorded.
Background: Agar diffusion results depend on both activity and mobility in agar.

For test [2], the system named is MSSA 476. Description: Disc diffusion (Kirby-Bauer), zone of inhibition. The format is cell-based, Staphylococcus aureus. The note with it: 500 μg/mL, '/' = no zone; for zone of inhibition at 500 µg/mL: Staphylococcus aureus, read-out: Zone of inhibition. As to the method: as §1, §2
Test [3] concerns Staphylococcus aureus 15981. Description: Disc diffusion (Kirby-Bauer), zone of inhibition. The format is cell-based. As to conditions: Staphylococcus aureus 15981, 500 μg/mL, '/' = no zone; for zone of inhibition at 500 µg/mL: read-out: Zone of inhibition. The protocol:
as §1, §2

Test [4] deals with MRSA 252. Kind of test: MIC, broth micro-dilution. The format is cell-based, Staphylococcus aureus. As to conditions: Staphylococcus aureus, read-out: MIC. As to the method:
as §1
(§3) Antibiotic MIC's were determined by a broth micro-dilution method according to Clinical Standard Laboratory Institute (CSLI) Guidelines (2017). Briefly, 96-well microplates, each containing 195 μL of the 1:2 dilution antibiotic in TSB, were inoculated with 5 μL of overnight cultured bacteria, diluted to give a starting bacterial concentration of 5×10^5 CFU/mL. The optical density of each well inoculated was recorded every 12 minutes over an 18 hour period at 37° C. The data from this was plotted in OriginPro8 (OriginLab) and sigmoidal curves fitted using the dose response function. Fitted values for each curve were used to calculate the MIC.
In general terms: Broth dilution looks for growth in wells or tubes with falling amounts of substance.

The test system of test [5] is MSSA 476. Description: MIC, broth micro-dilution. The class given is cell-based, Staphylococcus aureus. The protocol:
as §1, §3

The test system of test [6] is Pseudomonas aeruginosa PA01. Kind of test: Disc diffusion (Kirby-Bauer), zone of inhibition. The note with it: 500 μg/mL, '/' = no zone. The format is cell-based. As to the method:
as §1, §2

In test [7] the test system is MRSA 252, MSSA 476, S. aureus 15981, P. aeruginosa PA01 and E. coli DH5α. Description: Disc diffusion primary screening, five strains (statements in words). The class given is cell-based. As to conditions: 500 μg/mL. As to the method: As such, the minimum inhibition concentration (MICs) of biologically active compounds were further assessed using the broth dilution method against the S. aureus strains; MRSA 252 and MSSA 476 (Table 1). The results of both assays enabled key structural elements and functional groups required for the compounds to retain their antibiotic activity to be identified.
as §2

In another test the test system is Escherichia coli DH5α. Description: Disc diffusion (Kirby-Bauer), zone of inhibition. As to conditions: Escherichia coli DH5α; 500 μg/mL; '/' = no zone; read-out: Zone of inhibition. The class given is cell-based. As to the method: as §1, §2
Setting [8] is: Staphylococcus aureus, MSSA, read-out: MIC.

In brackets after ≈: the same amount, converted by molar mass. Where two headings read alike, the source gives them in different places.

By zone of inhibition is commonly meant the size of the clear area around the sample on an inoculated plate. In general, MIC refers to the least concentration at which growth counts as inhibited. On to `[C-]#[N+]C=Cc1cc(OC)ccc1OC` (mixture of isomers) [Compound 18, (E/Z)-2-(Isocyanovinyl)-1,4-dimethoxybenzene], for which the zone of inhibition at 500 µg/mL was 14 mm with MRSA 252 [1], 26 mm in the test on MSSA 476 [2] and 20 mm in test [3]. The minimal inhibitory concentration (MIC) came to 117 µg/mL in the test on MRSA 252 [4] and 210 µg/mL in the test on MSSA 476 [5] (setting [8]).

`[C-]#[N+]/C=C/c1ccccc1O` (single isomer, unassigned) [Compound 11, 2-(2-isocyanovinyl)phenol]: the zone of inhibition at 500 µg/mL with MRSA 252 [1] was 18 mm; in the test with MSSA 476 [2], 20 mm; in test [3], 14 mm; in test [6], 12 mm. For the same compound, the figures for the MIC in the test with MRSA 252 [4] and with MSSA 476 [5] (setting [8]) were 250 µg/mL (≈ 1720 µM) and 350 µg/mL (≈ 2410 µM), respectively.

As for `[C-]#[N+]CCc1ccc(O)cc1` [Compound 4, 4-(2-Isocyanoethyl)phenol], the “antibiotic activity in disc diffusion assays (in words)” value (“antibiotic activity” below) in test [7] was “complete loss of activity against all five strains”.

Take `[C-]#[N+]c1ccc(O)cc1` [Compound 5, 4-Isocyanophenol]: the zone of inhibition at 500 µg/mL with MRSA 252 [1] turned out to be 26 mm; in the test with MSSA 476 [2], 30 mm; in test [3], 16 mm; in the test with Escherichia coli DH5α, 18 mm; in test [6] it was 26 mm. Besides, the values for the minimal inhibitory concentration (MIC) in the test with MRSA 252 [4] and in the test on MSSA 476 [5] (setting [8]) were 26 µg/mL (≈ 218 µM) and 23 µg/mL (≈ 193 µM), respectively.

As to `[C-]#[N+]C=Cc1cccc(O)c1` [Compound 10, 3-(2-Isocyanovinyl)phenol], the values for the zone of inhibition at 500 µg/mL (with MRSA 252 [1]; with MSSA 476 [2]; in test [3]) were 20 mm, 16 mm and 18 mm, respectively. The MIC with MRSA 252 [4] came to 137 µg/mL (≈ 944 µM); in the test on MSSA 476 [5] (setting [8]), 300 µg/mL (≈ 2070 µM).

On to `[C-]#[N+]/C=C/c1cc(OC)ccc1O` [Compound 12, (E)-2-(2-Isocyanovinyl)-4-methoxyphenol], for which the zone of inhibition at 500 µg/mL with MRSA 252 [1] was 16 mm; with MSSA 476 [2], 14 mm; in test [3], 16 mm. Also, the MIC in the test with MRSA 252 [4] amounted to 123 µg/mL (≈ 702 µM); in the test with MSSA 476 [5] (setting [8]), 187 µg/mL (≈ 1070 µM).

For `[C-]#[N+]C=Cc1ccc(O)c(O)c1` [Compound 16, 4-(2-Isocyanovinyl)benzene-1,2-diol], the zone of inhibition at 500 µg/mL with MRSA 252 [1] came to 22 mm; in the test on MSSA 476 [2], 22 mm; in test [3], 24 mm; in test [6] it was 18 mm. For the same compound, the minimal inhibitory concentration (MIC) in the test with MRSA 252 [4] amounted to 116 µg/mL (≈ 720 µM); with MSSA 476 [5] (setting [8]) it was 400 µg/mL (≈ 2480 µM).

Regarding `[C-]#[N+]C=Cc1cc(Br)c(O)c(Br)c1` [Compound 17, 2,6-Dibromo-4-(2-isocyanovinyl)phenol], the zone of inhibition at 500 µg/mL worked out at 18 mm with MRSA 252 [1], 18 mm with MSSA 476 [2] and 16 mm in test [3]. In addition, the MIC in the test on MRSA 252 [4] stood at 157 µg/mL (≈ 518 µM); in the test on MSSA 476 [5] (setting [8]), 176 µg/mL (≈ 581 µM).

On to `[C-]#[N+]C=Cc1ccc(NC(=O)OC(C)(C)C)cc1` [Compound 23, Tert-butyl(4-(isocyanovinyl)phenyl)carbamate], for which the zone of inhibition at 500 µg/mL with MRSA 252 [1] came out at 18 mm; in the test on MSSA 476 [2], 20 mm; in test [3], 14 mm; in the test on Escherichia coli DH5α, 14 mm; in test [6], 14 mm. For the same compound, the MIC stood at 35 µg/mL (≈ 143 µM) in the test on MRSA 252 [4] and 164 µg/mL (≈ 671 µM) in the test on MSSA 476 [5] (setting [8]).

With `[C-]#[N+]C=C(C)c1ccc(NS(C)(=O)=O)cc1` [Compound 24, N-(4-(1-Isocyanoprop-1-en-2-yl)phenyl)methanesulfonamie], the zone of inhibition at 500 µg/mL with MRSA 252 [1] is 16 mm; in the test with MSSA 476 [2] it was 22 mm; in test [3] it was 18 mm; in the test with Escherichia coli DH5α it was 14 mm. Besides, the MIC in the test on MRSA 252 [4] worked out at 152 µg/mL (≈ 643 µM); in the test on MSSA 476 [5] (setting [8]), 291 µg/mL (≈ 1230 µM).

With `[C-]#[N+]C=Cc1cn(CC)c2ccccc12` [Compound 28], the zone of inhibition at 500 µg/mL in the test with MRSA 252 [1] came to 26 mm; in the test with MSSA 476 [2] it was 22 mm; in test [3] it was 22 mm; in test [6], 20 mm. In addition, the MIC in the test with MRSA 252 [4] came out at 56 µg/mL (≈ 285 µM); with MSSA 476 [5] (setting [8]) it was 144 µg/mL (≈ 734 µM).

With `[C-]#[N+]/C=C/c1cn(C(C)C)c2ccccc12` [Compound 29], the zone of inhibition at 500 µg/mL in the test on MRSA 252 [1] was 22 mm; in the test on MSSA 476 [2], 16 mm; in test [3], 16 mm; in test [6], 12 mm. Further, the MIC in the test on MRSA 252 [4] was determined as 63 µg/mL (≈ 300 µM); in the test with MSSA 476 [5] (setting [8]), 90 µg/mL (≈ 428 µM).

Consider `[C-]#[N+]C=Cc1c[nH]c2cccc(Br)c12` [Compound 30, 4-Bromo-3-(2-isocyanovinyl)-1H-indole], for which the zone of inhibition at 500 µg/mL turned out to be 14 mm with MRSA 252 [1], 12 mm in the test with MSSA 476 [2] and 12 mm in test [3]. The MIC amounted to 214 µg/mL (≈ 866 µM) with MRSA 252 [4] and 350 µg/mL (≈ 1420 µM) in the test on MSSA 476 [5] (setting [8]).

`[C-]#[N+]C=Cc1c[nH]c2cccc(Br)c12` [Compound 31, 4-Bromo-3-(2-isocyanovinyl)-1H-indole]: the Zone of inhibition (in the test on MSSA 476 [2]; in test [3]) was 12 mm throughout. The minimal inhibitory concentration (MIC) in the test on MSSA 476 [5] turned out to be 361 µg/mL (≈ 1460 µM).

Turning to `[C-]#[N+]/C=C/c1cc(/C=C/c2ccccc2)ccc1O` [Compound 37], the zone of inhibition at 500 µg/mL in the test with MRSA 252 [1] is 22 mm; in the test on MSSA 476 [2] it was 24 mm; in test [3], 22 mm. Further, the “antibiotic activity” value in test [7] is recorded as “retained antibiotic activity”. Besides, the MIC stood at 105 µg/mL (≈ 425 µM) in the test with MRSA 252 [4] and 120 µg/mL (≈ 485 µM) in the test with MSSA 476 [5] (setting [8]).

For the compound `[C-]#[N+]/C=C/c1ccc(NC(C)=O)cc1-c1ccccc1` [Compound 43, (E)-N-(6-(2-Isocyanovinyl)-(1,1-biphenyl)-3-yl)acetamide], the zone of inhibition at 500 µg/mL with MRSA 252 [1] is 22 mm; in the test on MSSA 476 [2], 18 mm; in test [3], 18 mm. In addition, the MIC is 32 µg/mL (≈ 122 µM) with MRSA 252 [4] and 26 µg/mL (≈ 99.1 µM) with MSSA 476 [5] (setting [8]).

For `[C-]#[N+]/C=C/c1ccc(NC(C)=O)cc1/C=C/c1ccncc1` [Compound 44, N-(4-((E)-2-Isocyanovinyl)-3-((E)-2-(pyridin-4-yl)vinyl)phenyl)acetamide], the zone of inhibition at 500 µg/mL in the test on MRSA 252 [1] stood at 28 mm; in the test with MSSA 476 [2], 28 mm; in test [3] it was 30 mm; in test [6], 26 mm. For the same compound, the “antibiotic activity” value in test [7] is “antibiotic activity against four of the strains”. Besides, the figures for the MIC with MRSA 252 [4] and in the test on MSSA 476 [5] (setting [8]) were 35 µg/mL (≈ 121 µM) and 46 µg/mL (≈ 159 µM), respectively.
